Laboratory results from patent publication US20260327204A1, “DEGRADERS OF CYCLIN-DEPENDENT KINASE 12/13, COMPOSITIONS, AND USES THEREOF” (ZHEJIANG UNIVERSITY, priority 2023, published 2026).

What was measured:
Assay type in all cases: cell-based
Parameters in all cases: degradation of CDK12/13 protein in leukemia cells KASUMI-1, MV4-11, and Jurkat; endogenous in cells
CDK13 [1] = molecular target: T1, CDK13 (Homo sapiens, UniProt Q14004); experiment: Western blot degradation of CDK13 (Example 3); conditions: DC50 classes; cell line not given; read-out: CDK13 degradation Activity
T1 sequence (Q14004 whole entry): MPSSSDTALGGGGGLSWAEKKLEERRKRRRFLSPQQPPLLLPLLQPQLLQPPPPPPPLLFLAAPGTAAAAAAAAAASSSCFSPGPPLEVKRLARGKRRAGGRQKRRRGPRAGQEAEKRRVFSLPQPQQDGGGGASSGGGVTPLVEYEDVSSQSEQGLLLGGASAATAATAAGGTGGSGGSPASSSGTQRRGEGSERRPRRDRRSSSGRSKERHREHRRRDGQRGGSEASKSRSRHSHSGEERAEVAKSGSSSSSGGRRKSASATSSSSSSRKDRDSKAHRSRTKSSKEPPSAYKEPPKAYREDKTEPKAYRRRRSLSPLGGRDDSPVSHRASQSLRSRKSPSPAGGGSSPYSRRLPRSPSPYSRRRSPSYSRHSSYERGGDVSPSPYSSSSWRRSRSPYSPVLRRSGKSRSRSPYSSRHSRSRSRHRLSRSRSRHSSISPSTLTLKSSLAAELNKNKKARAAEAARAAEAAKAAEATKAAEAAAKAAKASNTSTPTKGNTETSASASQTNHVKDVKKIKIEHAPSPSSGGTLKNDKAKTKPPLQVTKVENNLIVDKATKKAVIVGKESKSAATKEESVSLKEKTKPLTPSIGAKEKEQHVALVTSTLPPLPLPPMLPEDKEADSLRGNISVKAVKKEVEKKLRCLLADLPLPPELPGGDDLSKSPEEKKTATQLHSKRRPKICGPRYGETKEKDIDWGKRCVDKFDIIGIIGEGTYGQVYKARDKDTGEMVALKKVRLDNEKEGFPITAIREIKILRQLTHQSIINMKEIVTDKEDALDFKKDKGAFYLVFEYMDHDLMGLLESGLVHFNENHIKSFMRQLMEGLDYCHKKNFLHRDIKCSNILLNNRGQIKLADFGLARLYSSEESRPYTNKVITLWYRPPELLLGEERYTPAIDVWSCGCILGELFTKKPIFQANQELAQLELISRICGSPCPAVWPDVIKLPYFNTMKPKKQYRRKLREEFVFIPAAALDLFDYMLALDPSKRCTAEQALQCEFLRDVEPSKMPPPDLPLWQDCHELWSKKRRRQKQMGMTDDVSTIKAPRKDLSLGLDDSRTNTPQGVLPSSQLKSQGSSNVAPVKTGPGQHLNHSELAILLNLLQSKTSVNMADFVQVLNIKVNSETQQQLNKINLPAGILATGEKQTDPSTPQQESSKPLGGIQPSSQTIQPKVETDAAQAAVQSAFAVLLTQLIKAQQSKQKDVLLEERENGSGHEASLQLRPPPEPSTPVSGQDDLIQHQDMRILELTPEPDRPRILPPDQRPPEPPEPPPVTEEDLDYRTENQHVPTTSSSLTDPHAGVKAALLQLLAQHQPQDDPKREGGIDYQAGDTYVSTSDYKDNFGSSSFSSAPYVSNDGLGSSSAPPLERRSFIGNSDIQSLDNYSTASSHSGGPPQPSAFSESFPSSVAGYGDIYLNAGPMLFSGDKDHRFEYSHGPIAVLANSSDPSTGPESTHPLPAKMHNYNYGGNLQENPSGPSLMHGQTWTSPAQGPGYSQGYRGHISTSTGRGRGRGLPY
T1 sequence (O75909 whole entry partner): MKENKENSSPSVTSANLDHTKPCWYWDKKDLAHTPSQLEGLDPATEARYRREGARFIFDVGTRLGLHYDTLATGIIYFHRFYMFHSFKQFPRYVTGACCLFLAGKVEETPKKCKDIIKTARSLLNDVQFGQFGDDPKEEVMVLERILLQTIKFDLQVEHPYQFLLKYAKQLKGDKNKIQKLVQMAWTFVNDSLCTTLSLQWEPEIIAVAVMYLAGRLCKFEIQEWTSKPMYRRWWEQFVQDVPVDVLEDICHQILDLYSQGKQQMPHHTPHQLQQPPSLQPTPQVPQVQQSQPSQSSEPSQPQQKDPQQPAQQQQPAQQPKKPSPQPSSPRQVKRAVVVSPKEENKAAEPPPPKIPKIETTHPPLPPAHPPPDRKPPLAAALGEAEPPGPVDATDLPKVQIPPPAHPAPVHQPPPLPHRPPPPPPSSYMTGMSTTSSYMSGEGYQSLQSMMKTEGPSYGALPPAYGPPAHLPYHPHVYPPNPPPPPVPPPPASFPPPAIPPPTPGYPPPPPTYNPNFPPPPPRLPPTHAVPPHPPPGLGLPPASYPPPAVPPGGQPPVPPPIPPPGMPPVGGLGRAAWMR

CDK12 [2] = molecular target: T2, CDK12 (Homo sapiens, UniProt Q9NYV4); experiment: Western blot degradation of CDK12 (Example 3); conditions: DC50 classes; cell line not given; read-out: CDK12 degradation Activity
T2 sequence (Q9NYV4 whole entry): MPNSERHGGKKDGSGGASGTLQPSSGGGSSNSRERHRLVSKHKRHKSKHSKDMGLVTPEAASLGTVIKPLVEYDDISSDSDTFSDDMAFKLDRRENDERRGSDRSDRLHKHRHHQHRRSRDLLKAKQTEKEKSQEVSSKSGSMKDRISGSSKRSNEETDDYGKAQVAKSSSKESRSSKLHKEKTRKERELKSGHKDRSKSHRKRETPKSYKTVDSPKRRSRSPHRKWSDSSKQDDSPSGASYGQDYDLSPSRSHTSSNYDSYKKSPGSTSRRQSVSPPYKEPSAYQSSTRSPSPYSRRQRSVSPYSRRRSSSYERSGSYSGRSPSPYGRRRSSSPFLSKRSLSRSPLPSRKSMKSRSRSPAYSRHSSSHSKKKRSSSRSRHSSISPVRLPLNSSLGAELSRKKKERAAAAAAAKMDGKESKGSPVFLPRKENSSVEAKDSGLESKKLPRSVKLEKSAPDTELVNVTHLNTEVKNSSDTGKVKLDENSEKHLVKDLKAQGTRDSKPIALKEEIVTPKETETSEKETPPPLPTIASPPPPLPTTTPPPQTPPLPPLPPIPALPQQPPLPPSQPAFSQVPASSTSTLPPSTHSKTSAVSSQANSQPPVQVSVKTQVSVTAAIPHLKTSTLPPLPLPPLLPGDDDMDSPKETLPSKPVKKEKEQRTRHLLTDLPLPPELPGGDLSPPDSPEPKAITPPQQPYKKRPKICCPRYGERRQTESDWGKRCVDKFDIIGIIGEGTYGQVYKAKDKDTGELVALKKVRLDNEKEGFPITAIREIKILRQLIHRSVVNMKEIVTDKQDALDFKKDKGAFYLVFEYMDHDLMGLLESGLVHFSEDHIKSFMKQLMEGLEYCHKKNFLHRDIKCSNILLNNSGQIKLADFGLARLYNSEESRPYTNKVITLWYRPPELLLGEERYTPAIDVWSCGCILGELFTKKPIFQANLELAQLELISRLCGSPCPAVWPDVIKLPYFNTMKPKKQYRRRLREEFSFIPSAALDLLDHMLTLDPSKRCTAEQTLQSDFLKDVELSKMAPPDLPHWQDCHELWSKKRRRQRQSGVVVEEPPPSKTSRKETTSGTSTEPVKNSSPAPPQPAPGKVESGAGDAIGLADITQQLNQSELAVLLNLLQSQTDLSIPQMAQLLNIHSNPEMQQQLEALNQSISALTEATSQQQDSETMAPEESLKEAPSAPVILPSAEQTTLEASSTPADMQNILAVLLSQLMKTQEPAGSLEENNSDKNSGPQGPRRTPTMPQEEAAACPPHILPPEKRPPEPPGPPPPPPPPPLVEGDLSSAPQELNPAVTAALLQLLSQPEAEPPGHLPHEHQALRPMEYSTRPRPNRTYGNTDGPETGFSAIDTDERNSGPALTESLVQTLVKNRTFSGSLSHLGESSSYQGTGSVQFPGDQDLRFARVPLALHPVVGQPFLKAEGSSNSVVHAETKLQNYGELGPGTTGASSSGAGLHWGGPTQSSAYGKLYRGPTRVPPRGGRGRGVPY
T2 sequence (O75909 whole entry partner): as the sequence (O75909 whole entry partner) above

CDK12 [3] = molecular target: T2, CDK12; experiment: Western blot degradation of CDK12 (Example 2); conditions: DC50 classes, cell line not given; for DC50: read-out: CDK12 degradation Activity
Method: (§1) Western blot was used to determine the degradation of CDK12/13 protein in leukemia cells KASUMI-1, MV4-11, and Jurkat. The two compounds with the best degradation effects were further validated for their ability to degrade CDK12/13 protein in breast cancer cells MDA-MB-231 using a concentration gradient.
(§2) • Cell lines: KASUMI-1, MV4-11, Jurkat, or MDA-MB-231 • Culture medium: DMEM/RIPM-1640+10% Hyclone serum • Compound dissolution method: Compounds were dissolved in DMSO to prepare a 50 mM stock solution, and then diluted to the corresponding concentrations.
(§3) (1) In vitro cell culture: The selected cells were cultured in a 37 °C constant temperature incubator with 5% CO2. Once the cell density reached 70-90%, they were passaged for subsequent experiments.
(§4) (2) Cell seeding: Cells were digested, and the cell suspension was transferred to a 1.5 mL Eppendorf tube. After centrifugation at 1,000 rpm for 5 min, the cells were resuspended in 2 mL of culture medium and counted. The cell suspension was seeded in a 24-well plate at a density of 200,000 cells per well and allowed to adhere for 8-12 h.
(§5) (3) Compound treatment: The 50 mM compound stock solution was diluted with cell culture medium to a final concentration of 0.01 μM-3 μM. Cells were incubated in a 37 °C incubator with 5% CO2 for 3 h-48 h. The DMSO group served as the negative control.
(§6) At the end of the treatment time, the cells were collected and washed once with PBS. An appropriate volume of 4% SDS was added to lyse the cells, and the mixture was sonicated until no longer viscous. After centrifugation at 12,000 rpm at room temperature for 30 min, the supernatant was transferred to a new EP tube for protein quantification.
(§7) The exposure results were quantitatively analyzed using Image J software. First, the grayscale values of the bands were calculated using Image J. Then, the grayscale value of the target protein was divided by the grayscale value of the internal reference protein for normalization. The calculation formula is: […]
(§8) Where A is the grayscale value and D is the degradation rate.
(§9) In the figures, CDK12 and CDK13 are the target proteins under study, and β-Actin and GAPDH are the internal reference proteins. Internal reference proteins are used to indicate the total protein amount in each experimental group for quantitative analysis.

CDK13 [4] = molecular target: T1, CDK13; experiment: Western blot degradation of CDK13 (Example 2); conditions: DC50 classes, cell line not given; for DC50: read-out: CDK13 degradation Activity
Method: as §1, §2, §3, §4, §5, §6, §7, §8, §9

SMILES	DC50 (CDK12 [3])	DC50 (CDK13 [4])	other results
CC(=O)N(c1ccc(-c2ccc(N3CCN(c4cc(C(C(=O)N5C[C@H](O)C[C@H]5C(=O)N[C@@H](C)c5ccc(-c6scnc6C)cc5)C(C)C)on4)CC3)nc2)cc1)[C@H]1CC[C@@H](Nc2ncc3ccccc3n2)CC1 (single isomer, unassigned) [Formula 155]			DC50 (CDK13 [1]): < 100 nM; DC50 (CDK12 [2]): < 100 nM
CC(=O)N(c1ccc(-c2cnc(N3CCN(c4cc(C(C(=O)N5C[C@H](O)C[C@H]5C(=O)N[C@@H](C)c5ccc(-c6scnc6C)cc5)C(C)C)on4)CC3)nc2)cc1)[C@H]1CC[C@@H](Nc2ncc3ccccc3n2)CC1 (single isomer, unassigned) [Formula 156]			DC50 (CDK13 [1]): < 100 nM; DC50 (CDK12 [2]): < 100 nM
Cc1ncsc1-c1ccc([C@H](C)NC(=O)[C@@H]2C[C@@H](O)CN2C(=O)[C@@H](NC(=O)N2CC3(CCN(c4ccc(N(C(=O)NCc5ccccc5)[C@H]5CC[C@H](Nc6ncc(C#N)cn6)CC5)cc4)CC3)C2)C(C)(C)C)cc1 [Formula 54]			CDK12 degradation Activity (CDK12 [3]): −; CDK13 degradation Activity (CDK13 [4]): −
Cc1ncsc1-c1ccc([C@H](C)NC(=O)[C@@H]2C[C@@H](O)CN2C(=O)[C@@H](NC(=O)N2CC3(CCN(c4ccc(N(C(=O)NCc5ccccc5)[C@H]5CC[C@H](Nc6ccc(C#N)cn6)CC5)cc4)CC3)C2)C(C)(C)C)cc1 [Formula 55]			CDK12 degradation Activity (CDK12 [3]): −; CDK13 degradation Activity (CDK13 [4]): −
Cc1ncsc1-c1ccc([C@H](C)NC(=O)[C@@H]2C[C@@H](O)CN2C(=O)[C@@H](NC(=O)COCCn2cc(-c3ccc(N(C(=O)NCc4ccccc4)[C@H]4CC[C@H](Nc5ccc(C#N)cn5)CC4)cc3)ccc2=O)C(C)(C)C)cc1 [Formula 56]			CDK12 degradation Activity (CDK12 [3]): −; CDK13 degradation Activity (CDK13 [4]): −
Cc1ncsc1-c1ccc([C@H](C)NC(=O)[C@@H]2C[C@@H](O)CN2C(=O)[C@@H](NC(=O)COCCOCCn2cc(-c3ccc(N(C(=O)NCc4ccccc4)[C@H]4CC[C@H](Nc5ccc(C#N)cn5)CC4)cc3)ccc2=O)C(C)(C)C)cc1 [Formula 57]			CDK12 degradation Activity (CDK12 [3]): −; CDK13 degradation Activity (CDK13 [4]): −
Cc1ncsc1-c1ccc([C@H](C)NC(=O)[C@@H]2C[C@@H](O)CN2C(=O)[C@@H](NC(=O)COCCOCCOCCn2cc(-c3ccc(N(C(=O)NCc4ccccc4)[C@H]4CC[C@H](Nc5ccc(C#N)cn5)CC4)cc3)ccc2=O)C(C)(C)C)cc1 [Formula 58]			CDK12 degradation Activity (CDK12 [3]): −; CDK13 degradation Activity (CDK13 [4]): −
Cc1ncsc1-c1ccc([C@H](C)NC(=O)[C@@H]2C[C@@H](O)CN2C(=O)[C@@H](NC(=O)COCCOCCOCCOCCn2cc(-c3ccc(N(C(=O)NCc4ccccc4)[C@H]4CC[C@H](Nc5ccc(C#N)cn5)CC4)cc3)ccc2=O)C(C)(C)C)cc1 [Formula 59]	1000 to 3000 nM	1000 to 3000 nM	
Cc1ncsc1-c1ccc([C@H](C)NC(=O)[C@@H]2C[C@@H](O)CN2C(=O)[C@@H](NC(=O)COCCOCCOCCOCCOCCn2cc(-c3ccc(N(C(=O)NCc4ccccc4)[C@H]4CC[C@H](Nc5ccc(C#N)cn5)CC4)cc3)ccc2=O)C(C)(C)C)cc1 [Formula 60]	1000 to 3000 nM	500 to 1000 nM	
Cc1ncsc1-c1ccc([C@H](C)NC(=O)[C@@H]2C[C@@H](O)CN2C(=O)[C@@H](NC(=O)Cn2cc(-c3ccc(N(C(=O)NCc4ccccc4)[C@H]4CC[C@H](Nc5ncc(C#N)cn5)CC4)cc3)ccc2=O)C(C)(C)C)cc1 [Formula 61]			CDK12 degradation Activity (CDK12 [3]): −; CDK13 degradation Activity (CDK13 [4]): −
Cc1ncsc1-c1ccc([C@H](C)NC(=O)[C@@H]2C[C@@H](O)CN2C(=O)[C@@H](NC(=O)COCCOc2ccc(-c3ccc4c(c3)CN(Cc3ccccc3)C(=O)N4[C@H]3CC[C@H](Nc4ccc(C#N)cn4)CC3)cn2)C(C)(C)C)cc1 [Formula 62]	500 to 1000 nM	500 to 1000 nM	
Cc1ncsc1-c1ccc([C@H](C)NC(=O)[C@@H]2C[C@@H](O)CN2C(=O)[C@@H](NC(=O)CN2CCN(c3ccc(-c4ccc5c(c4)CCN(Cc4ccccc4)C(=O)N5[C@H]4CC[C@H](Nc5ccc(C#N)cn5)CC4)cn3)CC2)C(C)(C)C)cc1 [Formula 69]	500 to 1000 nM	100 to 500 nM	
Cc1ncsc1-c1ccc([C@H](C)NC(=O)[C@@H]2C[C@@H](O)CN2C(=O)[C@@H](NC(=O)CN2CCN(c3ccc(-c4ccc5c(c4)CCCN(Cc4ccccc4)C(=O)N5[C@H]4CC[C@H](Nc5ccc(C#N)cn5)CC4)cn3)CC2)C(C)(C)C)cc1 [Formula 70]	< 100 nM	< 100 nM	
Cc1ncsc1-c1ccc([C@H](C)NC(=O)[C@@H]2C[C@@H](O)CN2C(=O)[C@@H](NC(=O)CN2CCN(c3ncc(-c4ccc(N(C(=O)NCc5ccccc5)[C@H]5CC[C@H](Nc6ccc(C#N)cn6)CC5)cc4)cn3)CC2)C(C)(C)C)cc1 [Formula 79]	< 100 nM	< 100 nM	
Cc1ncsc1-c1ccc([C@H](C)NC(=O)[C@@H]2C[C@@H](O)CN2C(=O)[C@@H](NC(=O)CN2CCN(c3ncc(-c4ccc(N(C(=O)NCc5ccccc5)[C@H]5CC[C@H](Nc6ccc(C#N)cn6)CC5)cc4)cn3)CC2)C(C)(C)C)cc1 [Formula 80]	< 100 nM	< 100 nM	
Cc1ncsc1-c1ccc([C@H](C)NC(=O)[C@@H]2C[C@@H](O)CN2C(=O)[C@@H](NC(=O)CN2CCN(c3ncc(-c4ccc(N(C(=O)NCc5ccccc5)[C@H]5CC[C@H](Nc6ccc(C#N)cn6)CC5)cc4)cn3)CC2)C(C)(C)C)cc1 [Formula 82]	< 100 nM	< 100 nM	
Cc1ncsc1-c1ccc([C@H](C)NC(=O)[C@@H]2C[C@@H](O)CN2C(=O)[C@@H](NC(=O)CN2CCN(c3ncc(-c4ccc(N(C(=O)NCc5ccccc5)[C@H]5CC[C@H](Nc6ccc(C#N)cn6)CC5)cc4)cn3)CC2)C(C)(C)C)cc1 [Formula 83]	< 100 nM	< 100 nM	
Cc1ncsc1-c1ccc([C@H](C)NC(=O)[C@@H]2C[C@@H](O)CN2C(=O)[C@@H](NC(=O)CN2CCN(c3ncc(-c4ccc(N(C(=O)NCc5ccccc5)[C@H]5CC[C@H](Nc6ccc(C#N)cn6)CC5)cc4)cn3)CC2)C(C)(C)C)cc1 [Formula 84]	< 100 nM	< 100 nM	
Cc1ncsc1-c1ccc([C@H](C)NC(=O)[C@@H]2C[C@@H](O)CN2C(=O)[C@@H](NC(=O)CN2CCN(c3ncc(-c4ccc(N(C(=O)NCc5ccccc5)[C@H]5CC[C@H](Nc6ccc(C#N)cn6)CC5)cc4)cn3)CC2)C(C)(C)C)cc1 [Formula 85]	< 100 nM	< 100 nM	
Cc1ncsc1-c1ccc([C@H](C)NC(=O)[C@@H]2C[C@@H](O)CN2C(=O)[C@@H](NC(=O)CN2CCN(c3ncc(-c4ccc(N(C(=O)NCc5ccccc5)[C@H]5CC[C@H](Nc6ccc(C#N)cn6)CC5)cc4)cn3)CC2)C(C)(C)C)cc1 [Formula 86]	< 100 nM	< 100 nM	
CC(=O)N(c1ccc(N2CCC3(CC2)CCN(c2ccc4c(c2)C(=O)N(C2CCC(=O)NC2=O)C4=O)C3)cc1)[C@H]1CC[C@H](Nc2ncc3ccccc3n2)CC1 (stereo partly drawn) [Formula 119, N-(4-(2-(2-(2,6-dioxopiperidin-3-yl)-1,3-dioxoisoindolin-5-yl)-2,8-diazaspiro[4.5]decan-8-yl)phenyl)-N-((1R,4R)-4-(quinazolin-2-ylamino)cyclohexyl)acetamide]			DC50 (CDK12 [2]): 1000 to 3000 nM
